Test results published in ChEMBL document CHEMBL3436045 (Sci Rep, 2013).

Experiments:
Type in all cases: functional, cell-based, Cricetulus griseus
[1] = target: T1, Voltage-gated L-type calcium channel (Homo sapiens, UniProt Q13936+Q13698+Q01668+O60840); test: (§1) Inhibition of Cav1.2 current measured using QPatch automatic path clamp system in CHO cells expressing Cav1.2, beta-2 and alpha-2/delta-1 subunits; parameters: ca sol conc 1.8 mM, temp Ambient
[2] = target: T1, Voltage-gated L-type calcium channel; test: as §1
[3] = target: T1, Voltage-gated L-type calcium channel; test: Inhibition of Cav1.2 current measured using PatchXpress automatic path clamp system in CHO cells expressing Cav1.2, beta-2 and alpha-2/delta-1 subunits; parameters: ca sol conc 1.8 mM, temp Ambient

SMILES | IC50 [1] | other results
CCN1CCN(C(=O)N[C@@H](C(=O)N[C@@H]2C(=O)N3[C@@H]2SC(C)(C)[C@@H]3C(=O)O)c2ccccc2)C(=O)C1=O [PIPERACILLIN] | 1226 µM | –
O=C1NCCN1CCN1CCC(c2cn(-c3ccc(F)cc3)c3ccc(Cl)cc23)CC1 [SERTINDOLE] | 6.3 µM | –
Cc1cn([C@@H]2C[C@@H](O)[C@H](CO)O2)c(=O)[nH]c1=O [TELBIVUDINE] | 713.9 µM | –
C[C@@H](c1ncncc1F)[C@](O)(Cn1cncn1)c1ccc(F)cc1F [VORICONAZOLE] | – | IC50 [2]: 414.2 µM
O=C1CCc2cc(OCCCCc3nnnn3C3CCCCC3)ccc2N1 [CILOSTAZOL] | 91.2 µM | –
CC(C)N(CCC(C(N)=O)(c1ccccc1)c1ccccn1)C(C)C (stereo not given) [DISOPYRAMIDE] | 1036.7 µM | –
C[C@@H]1CN(c2c(F)c(N)c3c(=O)c(C(=O)O)cn(C4CC4)c3c2F)C[C@H](C)N1 [SPARFLOXACIN] | 88.8 µM | –
Fc1ccc([C@@H]2CCNC[C@H]2COc2ccc3c(c2)OCO3)cc1 [PAROXETINE] | 3.9 µM | –
O=C(CCCN1CC=C(n2c(=O)[nH]c3ccccc32)CC1)c1ccc(F)cc1 [DROPERIDOL] | 7.6 µM | –
COc1cc(N)c(Cl)cc1C(=O)NC1CCN(CCCOc2ccc(F)cc2)CC1OC (stereo not given) [CISAPRIDE] | 11.8 µM | –
CC(=O)NC[C@H]1CN(c2ccc(N3CCOCC3)c(F)c2)C(=O)O1 [LINEZOLID] | 105.4 µM | –
O=C1NC(=O)C(c2ccccc2)(c2ccccc2)N1 [PHENYTOIN] | 21.9 µM | –
CCCC(C)C1(CC)C(=O)NC(=O)NC1=O (stereo not given) [PENTOBARBITAL] | – | IC50 [3]: 299 µM
CCCCCCCN(CC)CCCC(O)c1ccc(NS(C)(=O)=O)cc1 (stereo not given) [IBUTILIDE] | 62.5 µM | –
CO/N=C(\C(=O)N[C@@H]1C(=O)N2C(C(=O)O)=C(CSc3nc(=O)c(O)nn3C)CS[C@H]12)c1csc(N)n1 [CEFTRIAXONE] | 153.8 µM | –
CC(CC(c1ccccc1)c1ccccc1)NC(C)(C)C (stereo not given) [TERODILINE] | 4.8 µM | –
CCN(CC)CCNC(=O)c1c(C)[nH]c(/C=C2\C(=O)Nc3ccc(F)cc32)c1C [SUNITINIB] | 33.4 µM | –
N[C@@H](CC(=O)N1CCn2c(nnc2C(F)(F)F)C1)Cc1cc(F)c(F)cc1F [SITAGLIPTIN] | 147.1 µM | –
NC(=O)c1ncn([C@@H]2O[C@H](CO)[C@@H](O)[C@H]2O)n1 [RIBAVIRIN] | 622.5 µM | –
Cc1nc2n(c(=O)c1CCN1CCC(c3noc4cc(F)ccc34)CC1)CCCC2O (stereo not given) [PALIPERIDONE] | 193.9 µM | –
